Experiment: Solubility of the solids in organic and aqueous media / common solvents
Assay type: physicochemical

solubility (form insoluble solids) (in both organic and aqueous media): insoluble
solubility (in common NMR solvents): insoluble
solubility (in common organic solvents): highly insoluble
Structure (SMILES): Nc1c(N)c(=O)c2[nH]c3c(=O)c(N)c(N)c(=O)c3[nH]c2c1=O [BTABQ, tetraamino-dihydrophenazine-1,4,6,9-tetrone]

Reference: patent publication US20250140486A1, “FUSED AROMATIC MOLECULES AS ELECTRODE MATERIALS” (Massachusetts Institute of Technology, priority 2021, published 2025)
